Test results from patent publication US9486440B2, “Uses of indole-ketones or indolidones as neuro-protective drugs” (UNIVERSITY OF MACAU, priority 2011, dated 2016).
Like-named read-outs stand apart in the source and are kept apart here.

Experiments:
[1] = test system: dopaminergic neurons in zebrafish larval; assay: MPTP zebrafish, TH-positive neuron count in paraffin sections; assay type: in vivo
Method: Healthy zebrafish embryos were picked and dechorionated manually at 1 day post fertilization (dpf) then distributed into a 12-well plate with 20 fish embryos or a 6-well microplate with 30 fish embryos in each well. In pilot experiments, several doses of MPTP were added to embryo medium (final concentration from 50 to 800 μM) and 1 dpf fish embryo were treated for 48 hours, The optimal dose used (200 μM) induced a significant decrease in brain diencephalic dopaminergic neurons without any detectable systematic toxicity (data not shown). Thus subsequent studies were performed with 200 μM MPTP for whole-mount immunostaining and gene expression experiments.
After drug treatment, fixation of zebrafish larval was performed as the procedure in whole-mount immunostaining. The fixed specimens were then mounted on 1% agarose blocks in a common linear plane to ensure that the microtome blade passes through each specimen simultaneously. The specimen-containing agarose was converted into a sectionable paraffin wax block and conducted processes as described by Sabaliauskas et al., 2006. […] The results were analyzed by counting the numbers of TH-positive cells at ×20 magnifications on a stereomicroscope (BX51, Olympus Corp. Japan). TH-positive cells in 3 matched sections of each zebrafish were counted and averaged. […]

[2] = test system: nNOS knockdown PC12 cells; assay: MPP+ in ShRNA-mediated nNOS knockdown PC12 cells; assay type: cell-based, rat; settings: 20 μM SU5416 2 hours, then 1 mM MPP+ 24 hours
Method: The assay was performed according to the specifications of the manufacturer (MTT kit I; Roche Applied Science). […] After the incubation, 100 μl of the solvating solution (0.01 N HCl in 10% SDS solution) was added to each well for 16-20 hours. The absorbance of the samples was measured at a wavelength of 570 nm with 655 nm as a reference wavelength. Unless otherwise indicated, the extent of MTT conversion in cells exposed to MPP^+ is expressed as a percentage of the control. Cytotoxicity was determined by measuring the release of lactate dehydrogenase (LDH). Briefly, cells were precipitated by centrifugation at 500 g for 5 min at room temperature, 50 μl of the supernatants was transferred into new wells, and LDH was determined using the in vitro toxicology assay kit (Roche). The absorbance of the samples was measured at a wavelength of 490 nm with 655 nm as a reference wavelength. ShRNA against rat nNOS was designed according to […] et al, 2009. […] NM_052799), was used to generate shRNA. […] Sense and antisense oligonucleotides were then annealed and cloned into pG418-GFP vector to express shRNA directed against nNOS under the control of the U6 promoter (GenePharma, Shanghai, China). A negative control shRNA (ShNC) with the same nucleotide composition but lacks significant sequence homology to the genome was also used in the experiments. […]

[3] = test system: ERK and Akt pathways; assay: Western blot of phospho-Akt and phospho-ERK after MPP+; assay type: cell-based; settings: data not shown
[4] = phase I, 145 mg/m^2; cited from earlier work
[5] = SU4312 in brain homogenate of rats after i.p. administration (HPLC); assay type: in vivo, rat; settings: 12 mg/kg i.p.
Method: To investigate whether SU4312 could reach the brain, an HPLC method was used to detect SU4312 in the brain homogenate and plasma of rats (Scott et al., 2004; Spitsin et al., 2008). Briefly, after drug administration by i.p., the animals were transcardially perfused with PBS/heparin (1000 U/L). Then rats were sacrificed by decapitation and brain tissue was homogenized. SU4312 in the brain homogenate was extracted with 3 ml […]. After evaporating the solvent, the residue was reconstituted in 50 μl methanol. SU4312 in the brain tissue was identified by an Agilent 1200 Series HPLC coupled with UV detector at a wavelength of 254 nm. Prior to the preparation of brain homogenate, transcardial perfusion with PBS/heparin was conducted in order to remove blood from cerebravascular system so as to avoid the interference of the SU4312 that simply retained in the brain vasculature.
Plasma concentration of SU4312 was also assayed by an HPLC method. Briefly, after drug administration by i.p., serial blood samples were collected through right internal jugular vein catheterization at various time points post-dosing. The plasma samples were treated with acetonitrile and methanol followed by centrifugation, and 20 μl supernatants were injected into the liquid chromatographic system. The mobile phase consisted of a mixture of methanol and water (80:20, v/v) at a flow rate of 1 ml/min.

[6] = test system: VEGFR-2; settings: cited from earlier work
[7] = test system: PDGFR; settings: cited from earlier work

Compound: Cc1cc(C)c(/C=C2\C(=O)Nc3ccccc32)[nH]1 [SU5416, (3Z)-3-[(3,5-dimethyl-1H-pyrrol-2-yl)methylidene]-1,3-dihydro-2H-indol-2-one]
- MPTP-induced loss of dopaminergic neurons (TH-positive neuron count) ([1]; 200 μM MPTP, 1 μM SU5416, 2 days): obviously prevented the loss of dopaminergic neurons
- number of dopaminergic neurons, drug alone ([1]; without MPTP): did not notably alter the number of dopaminergic neurons
- MPP+-induced cell death in nNOS knockdown PC12 cells (MTT, LDH) [2]: no longer able to inhibit MPP^+-induced cell death
- activities of phospho-Akt and phospho-ERK [3]: could neither inhibit the activation of pro-apoptotic ERK pathway, nor reverse the decrease of pro-survival Akt pathway
- tolerability in patients with advanced malignancies [4]: well tolerated

Compound: CN(C)c1ccc(C=C2C(=O)Nc3ccccc32)cc1 [SU4312, 3-[4-(dimethylamino)benzylidenyl]indolin-2-one]
- detection in the brain, 15 min ([5]; 15 min post-administration): could rapidly penetrate into the brain and be detected in the brain 15 min post-administration
- detection in the brain, 60 min ([5]; 60 min after administration): almost no SU4312 was detected in the brain
